Source: patent US12162935B2, “Regimens, compositions and methods with capsaicin and TNF-alpha inhibitor” (priority 2018, dated 2024)

How the values were obtained:
[1] = test system: ERK1/2; assay: ERK1/2 activation by western blotting; assay type: cell-based, mouse; conditions: 100 μM H2O2 or TNF-α 0.1 μg/ml
[2] = test system: UB/OC-1 cells; assay: Western blot of STAT1, STAT3 and JAK2 phosphorylation; assay type: cell-based, mouse
[3] = molecular target: TRPV1 (Homo sapiens, UniProt Q8NER1); assay: Ca2+ imaging (Fluo-4AM) in HEKVR1 cells; assay type: cell-based
TRPV1, sequence (Q8NER1 whole entry, species assumed): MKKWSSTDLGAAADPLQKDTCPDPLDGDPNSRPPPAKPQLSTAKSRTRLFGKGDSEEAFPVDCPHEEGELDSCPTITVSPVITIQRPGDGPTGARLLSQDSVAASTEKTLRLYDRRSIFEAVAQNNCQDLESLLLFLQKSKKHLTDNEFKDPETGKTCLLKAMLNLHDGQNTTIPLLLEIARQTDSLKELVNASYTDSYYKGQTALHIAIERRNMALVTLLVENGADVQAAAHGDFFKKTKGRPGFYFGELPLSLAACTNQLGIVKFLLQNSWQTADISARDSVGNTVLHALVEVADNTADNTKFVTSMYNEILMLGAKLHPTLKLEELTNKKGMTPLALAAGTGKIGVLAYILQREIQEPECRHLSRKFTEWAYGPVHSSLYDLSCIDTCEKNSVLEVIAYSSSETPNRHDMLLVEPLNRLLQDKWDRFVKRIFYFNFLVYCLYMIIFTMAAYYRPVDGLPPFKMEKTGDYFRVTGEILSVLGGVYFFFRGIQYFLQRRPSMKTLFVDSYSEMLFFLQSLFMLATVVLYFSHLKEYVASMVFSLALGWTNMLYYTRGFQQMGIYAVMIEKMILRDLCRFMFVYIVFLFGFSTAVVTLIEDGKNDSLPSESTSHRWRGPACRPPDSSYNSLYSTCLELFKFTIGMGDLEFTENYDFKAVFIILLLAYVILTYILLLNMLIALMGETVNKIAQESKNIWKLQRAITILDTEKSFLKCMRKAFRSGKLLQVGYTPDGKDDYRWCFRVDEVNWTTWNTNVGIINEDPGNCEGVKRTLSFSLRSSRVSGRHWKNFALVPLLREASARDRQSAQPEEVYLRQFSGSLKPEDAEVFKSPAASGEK
Excerpt: (§1) NE has been linked to immediate increase in ROS generation and persistent oxidative stress in the cochlea2, leading to generation of reactive oxygen species such as: hydroxyl […] (OH^−), superoxide anion (O^2—) and hydrogen peroxide (H2O2).

[4] = test system: UB/OC-1 cells; assay: Ca2+ imaging (Fluo-4AM) in UB/OC-1 cells; assay type: cell-based, mouse
Excerpt: as §1

[5] = test system: Wistar rats; assay: ABR threshold shifts, cisplatin-induced hearing loss; assay type: in vivo, rat
Description: Adult male Wistar rats (200-350 g) (from Envigo) were used for this study. Rats were housed in a temperature controlled room with a twelve hour light/dark cycle. They had free access to commercial food and water provided by the SIU Laboratory Animal Care facility.
Prior to experiments, rats were anesthetized with ketamine HCl/xylazine mixture (24.6/3 mg/kg) and then placed in a sound-attenuation chamber (Industrial Acoustic Company, Inc.). Body temperature of the rats was maintained at 37° C. with an animal blanket system. Pretreatment auditory brainstem responses (ABRs) was performed using an IHS-High-frequency System (Intelligent Hearing Systems, Miami, FL). The rats were exposed to acoustic stimuli via HIS transducers that were directly placed at the entrance of the ear canal. ABR thresholds were obtained for 5 ms duration tone bursts at 8, 16 and 32 kHz at a rate of 50/s. Thresholds were determined by visually produced lowest intensity evoked potentials (EP) that progressed in 10 dB steps. Evoked potentials (Eps) were amplified to 200,000×, and were band pass filtered (100-3000 Hz) and averaged over 1024 sweeps [Mukherjea et al., 2010].
At the end of auditory testing, the anesthetized animals were decapitated and the cochlea harvested. The SIU Laboratory Animal Care and Use Committee approved all animal procedures.
Male Wistar rats were anesthetized using ketamine/xylazine cocktail. The tympanic membrane was punctured as described in [Mukherjea et al., 2010].

[6] = test system: UB/OC-1 cells; assay: Cell viability assay (MTS assay); assay type: cell-based
Description: The in vitro UB/OC1 cell proliferation was performed by using the CellTiter 96® AQueous One Solution Cell Proliferation Assay Kit (Promega, Madison, WI), according to the manufacturer's instructions. 3,500 cells were seeded per well into a 96-well plate. […] After 48 h, 20 μl of CellTiter 96 AQueous One Solution reagent was added to each well in 100 μl of total volume of media. Cells were incubated for 1 h, and recorded absorbance at 490 nm using an ELISA plate reader. The absorbance is directly proportional to the number of living cells and is expressed as a percent relative to vehicle-treated cells.

[7] = test system: rat cochlea; assay: Cochlear gene expression by q-PCR (cisplatin study); assay type: in vivo; conditions: 72 h following cisplatin
[8] = test system: UMSCC-10b cells; assay: SCID mouse xenograft model; assay type: in vivo; conditions: single agent: cisplatin 2 mg/kg ip or oral capsaicin 0.5 mg/kg
Description: SCID mice (from Envigo, 5-6 weeks of age) were injected subcutaneously with 1.5×10^6 mycoplasma-free UMSCC 10B cells in one flank. […] At the time of each treatment, tumor volumes were calculated based on the formula: volume=width2×(length/2) [Jajoo et al.]. Mice were killed 24 h after the eleventh treatment. All procedures were performed in accordance with relevant guidelines and regulations of SIU School of Medicine.

[9] = test system: rat cochlea; assay: Immunolabelling of mid-modiolar cochlear sections, fluorescent intensity analyses; assay type: in vivo
Description: Cochleae were perfused with a 4% paraformaldehyde solution, cochleae were decalcified for 7-10 days in 120 mM EDTA, embedded them in paraffin and then sectioned the specimens [Mukherjea et al., 2010]. Slides were deparaffined, rehydrated and then stained with primary and secondary antibodies. Glass coverslips were mounted on the specimens with ProLong Diamond mounting medium. Images were obtained using a Leica confocal microscope (Buffalo Grove, IL).
Image J software was used to analyze the mean gray area for the various images. These values were then used to quantify the increase or decrease in % fluorescence intensity of the various regions of the samples compared to control.

[10] = test system: outer hair cells (OHCs); assay: Outer hair cell damage by SEM and whole mount hair cell count; assay type: in vivo, rat; conditions: basal turn, cisplatin
Excerpt: Immediately after completion of post-treatment ABRs, rats were euthanized and their cochleae were harvested and the specimens processed as described previously by [Kamimura et al.]. Sputter-coated cochlea were viewed and photographed with a Hitachi S-500 scanning electron microscope (Hitachi Ltd.). The resulting scanning electron micrographs were examined to determine qualitative morphological characteristics in various regions including the basal, middle, and apical turns of the rat cochlea.
Two representative areas of the basal turn, middle turn, and apex and hook portion were photographed. In each area, outer hair cells (OHCs) were counted in an area that was 10 pillar cell heads in length. The results are presented as the percentage hair cell damage per cochlear turn. At least three cochleae from different animals per treatment group were used.
To study the organization of the outer hair cells and inner hair cells, the cochlear whole mount technique was used. The cochleae was fixed in fresh 4% paraformaldehyde overnight, and then decalcified in […] EDTA for 2 weeks, (pH 7.3) while stirring at room temperature for 2 weeks. After decalcification, the cochleae was microdissected into basal, middle, and apical turns for whole-mount preparation.
For further processing, segments were washed with 1×PBS twice for 5 mins. For blocking, the segments were incubated in 10% blocking serum (horse serum) for 3 hrs at room temperature. The segments were incubated with primary antibody in 0.2% Triton prepared in PBS and refrigerated overnight. The following day, the segments were washed in PBS (three washes) for 5 mins each wash. The segments were washed in secondary antibody for 2 hrs at room temperature in the dark. The antibodies were then washed with PBS (three washes). Glass coverslips were then mounted on the segments with ProLong Diamond Antifade Mountant (Thermo Fisher Scientific) and incubated them at room temperature overnight and then stored them in 4 degrees. Images were procured using a Leica confocal microscope (Buffalo Grove, IL).
For hair cell count in whole mount preparations, two to three random areas from the basal turn from each treatment group separately were selected. Hair cells were counted in […] segments of the cochlea respectively. Counts were averaged across treatment group. This was further normalized as % of PBS (control) by taking the values of control as 100%.

[11] = test system: UB/OC1 cells; assay: Cell death by TUNEL
Description: UB/OC1 cells were treated with either scrambled siRNA or TRPV1 siRNA for 24 h.

[12] = BCTC 100 nM 45 min then capsaicin 2.5 μM
[13] = TNF-α 0.1 μg/ml 60 seconds prior to 100 μM H2O2, till 5 minutes
[14] = capsaicin 2.5 μM 30 min and/or cisplatin 2.5 μM 45 min (FIG. 5.E)

OO [H2O2, hydrogen peroxide]
time of highest ERK activation post treatment [1]: 60 min

CC(C)(C)c1ccc(NC(=O)N2CCN(c3ncccc3Cl)CC2)cc1 [BCTC, N-(4-tertiarybutylphenyl)-4-(3-chloropyridin-2-yl) tetrahydropyrazine-1(2H)-carbox-amide]
TRPV1 mediated STAT1-Ser^727 phosphorylation [2, 12]: decreases | Tyr STAT3 phosphorylation [2, 12]: without significantly altering

TNF-α
H2O2-induced calcium release [3, 13]: prolonged sustained calcium release | H2O2-induced calcium release [4, 13]: prolonged sustained calcium release | time of highest ERK activation post treatment [1]: 30 min

COc1ccc(C(=O)c2c(C)n(CCN3CCOCC3)c3cc(I)ccc23)cc1 [AM630]
capsaicin-induced Ser^727 p-STAT1 [2]: significantly decreased | capsaicin-induced Tyr p-STAT3 [2]: significantly decreased | JWH015 increase of p-STAT3 ([2]; AM630 10 μM 30 min before JWH015): reversed | ABR thresholds ([5]; AM630 trans-tympanic alone or in combination with capsaicin): significant increases in ABR thresholds | effect on capsaicin protection against cisplatin-induced hearing loss ([5]; AM630 trans-tympanic before oral capsaicin 20 mg/kg and cisplatin): reversed the protective effect of oral capsaicin | cell viability compared to capsaicin ([6]; AM630 30 minutes prior to capsaicin for 24 h): significantly decreased cell viability

CCCn1c(C)c(C(=O)c2cccc3ccccc23)c2ccccc21 [JWH015]
p-STAT3 ([2]; JWH015 10 μM 30 min): increased p-STAT3

O=[N+]([O-])c1ccc2c(c1)S(=O)(=O)C=C2 [STATTIC]
Tyr^705 p-STAT3 levels ([2]; STATTIC 100 nM): significantly reduced | cell death ([6]; STATTIC 100 nM alone): did not induce cell death | protective action of capsaicin against cisplatin-induced cell killing ([6]; STATTIC 100 nM pre-treatment): abrogated the protective action of capsaicin

Cc1c(C(=O)NN2CCOCC2)nn(-c2ccc(Cl)cc2Cl)c1-c1ccc(I)cc1 [AM281]
capsaicin-induced Ser^727 p-STAT1 [2]: had no effect | capsaicin-induced Tyr p-STAT3 [2]: did not alter

N.N.[Cl][Pt][Cl] [cisplatin]
Tyr p-STAT3 ([2]; 2.5 μM, at 120 minutes): sustained inhibition | JAK2 phosphorylation ([2]; 2.5 μM, time course): persistent and significant reductions | Ser^727 p-STAT1 ([2]; 2.5 μM, up to 120 min): persistent increase | p-STAT1 [2, 14]: 120±2% | p-STAT3 [2, 14]: 106.5±2.5% | increases in TRPV1, NOX3 and INOS expression [7]: 2-3 fold | tumor growth (volume, size, weight) [8]: significantly reduced | CB2 labelling in the OHCs, SGs and SVA ([9]; single agent): did not significantly change | TRPV1, NOX3 and iNOS labelling in the OHCs, SG and SVA ([9]; single agent vs control): significantly increased | loss or damage of outer hair cells compared to vehicle controls ([10]; SEM): ten-fold | outer hair cell death ([10]; whole mount, myosin VIIa): 43±4%

COc1cccc(-c2cc(=O)c3ccccc3o2)c1N [PD98059]
H2O2-induced calcium release ([3]; 10 μM PD98059 pre-treatment): little or no calcium release | H2O2-induced calcium release ([4]; 10 μM PD98059 pre-treatment): little or no calcium release | cell death/apoptosis by 100 μM H2O2 [11]: significantly decreased cell death
